# Test results published in patent US8372409B2, “Dendritic cell binding proteins and uses thereof” (University of Florida Research Foundation, Inc., priority 2003, dated 2013).
# Legend:
# [1] = tested on: CD1a+DRbright CD11bright monocyte-derived human DC; assay: FACS binding of biotinylated DC-peptides to human monocyte-derived DC; settings: for binding to monocyte-derived human DC: biotinylated peptides, FACS and confocal microscopy (FIG. 1A, 1B)
# Experimental: (§1) Peripheral blood mononuclear cells (PBMCs) were isolated from blood of healthy or HCV^+ individuals by Ficoll gradient centrifugation. HCV RNA was detected in the blood of HCV-infected patients by RT-PCR. PBMCs (10^7/well) were seeded in 6-well plates for 2 hrs at 37° C. Subsequently, non-adherent cells were removed by several washes using PBS plus 2% fetal calf serum (FCS) and frozen for autologous MLR experiments. Adherent monocytes were cultured with GM-CSF (100 ng/ml) and IL-4 (10 ng/ml) in complete RPMI for 6 days (6). CD1a^+DR^bright DC were phenotyped by FACS before use. Rhesus macaque or chimpanzees DC were prepared in a parallel fashion by using Hgm-CSF (100 ng/ml) and Hil-4 (50 ng/ml) for six days (15). Mouse DC were prepared from bone marrow of BALB/c mice as described (16). On day six, CD11c^+I-A^+ DC were harvested, phenotyped and used for DC-peptide staining.
# (§2) MDC (5×10^5) were incubated with biotinylated peptides (10 μg/ml each) for 1 hr at 4° C. Subsequently, cells were washed, incubated with SA-PE (1:100) for 1 hr, fixed with 0.1% paraformaldehyde and analyzed on a FACSCalibur™ using standard CellQuest software (Becton Dickinson). T cells were analyzed as we described (19). At least 10^4 gated events/condition were acquired for all analyses.
# (§3) To test peptide binding specificity, biotinylated peptides #3, #12 and #18 were incubated with CD1a^+DR^bright CD11^bright monocyte-derived human DC, and analyzed by FACS.
# The cognate ligands for these peptides are unknown. Thus, we next tested whether these peptides bound distinct epitopes. DC presaturated with non-biotinylated peptide no longer bound the corresponding biotinylated peptide (FIG. 2A). […] Thus, the three DC-binding peptides bound distinct, saturable DC surface epitopes.
# Biotinylated peptide #3 bound immature DC within 1 hr at 4° C. (FIG. 2D). Staining was decreased over the following 20 hrs at 37° C. (FIG. 2D) consistent with antigen uptake by Dcs (15, 22). […] Peptides bound immature (upper panel) and mature MDC (lower panel) comparably (FIG. 2E), although LPS-mediated maturation appeared to increase peptide binding slightly by inducing a new, minor population of high peptide-binding DC.
# [2] = tested on: monocyte-derived DC from chimpanzee; assay: FACS binding of biotinylated DC-peptides to chimpanzee DC
# Experimental: as §1, §2, §3
# [3] = tested on: monocyte-derived DC from rhesus macaque; assay: FACS binding of biotinylated DC-peptides to rhesus macaque DC; settings: FACS (FIG. 1E)
# Experimental: as §1, §2, §3
# [4] = tested on: CD11c+I-A+ DC derived from mouse bone marrow; assay: FACS binding of biotinylated DC-peptides to mouse bone marrow derived DC; settings: FACS (FIG. 1F)
# Experimental: as §1, §2, §3
binding to monocyte-derived human DC [1],binding to monocyte-derived DC from chimpanzee [2],binding to monocyte-derived DC from rhesus macaque [3],binding of 12-mer peptide to DC ([1]; selected from the same panning as negative control),Sequence,binding to CD11c+I-A+ DC derived from mouse bone marrow [4],"staining of DC over the following 20 hrs ([1]; 37° C., consistent with antigen uptake (FIG. 2D))",DC viability during peptide incubation ([1]; 20 hrs at 37° C.),"time to binding of immature DC ([1]; biotinylated peptide, 4° C. (FIG. 2D)) [h]"
bound to DC,specifically bound,specifically bound,,AYYKTASLAPAE (PEPTIDE peptide specific to myeloid dendritic cells) [compound 12],did not,,,
,,,did not bind to DC,"EPIHPETTFTNN [control peptide, reference compound]",,,,
bound to DC,specifically bound,specifically bound,,SLSLLTMPGNAS (PEPTIDE peptide specific to myeloid dendritic cells) [compound 18],did not,,,

Sequence,binding to monocyte-derived human DC [1],binding to monocyte-derived DC from chimpanzee [2],binding to monocyte-derived DC from rhesus macaque [3],binding of 12-mer peptide to DC ([1]; selected from the same panning as negative control),binding to CD11c+I-A+ DC derived from mouse bone marrow [4],"staining of DC over the following 20 hrs ([1]; 37° C., consistent with antigen uptake (FIG. 2D))",DC viability during peptide incubation ([1]; 20 hrs at 37° C.),"time to binding of immature DC ([1]; biotinylated peptide, 4° C. (FIG. 2D)) [h]"
FYPSYHSTPQRP [peptide #3],bound to DC,specifically bound,specifically bound,,bound,decreased,remained viable,≤ 1
